According to ChEMBL document CHEMBL6083220, “Chemically induced degradation of PRC2 complex by EZH2-Targeted PROTACs via a Ubiquitin-Proteasome pathway” (Bioorg Med Chem Lett, 2024):
The source made the active and inactive calls. No cut-off for these calls is given here.

Tests used:
OCI-Ly7 = test: Antiproliferative activity against human OCILY7 cells by MTT assay; format: functional, cell-based
[1] = Antiproliferative activity against human MINO cells by MTT assay; format: functional, cell-based
MINO [2] = test: Induction of mitochondrial apoptosis pathway in human MINO cells assessed as downregulation of bcl-2 expression at 5 uM incubated for 24 hrs by Western blotting assay; format: functional, cell-based
MINO [3] = test: Induction of mitochondrial apoptosis pathway in human MINO cells assessed as downregulation of procaspase-3 expression at 5 uM incubated for 24 hrs by Western blotting assay; format: functional, cell-based
[4] = Induction of apoptosis in human MINO cells assessed as early apoptotic cells at 5 uM incubated for 24 hrs by Annexin V-FITC/PI staining based flow cytometry assay (reference value: 1.04%); format: functional
[5] = Induction of apoptosis in human MINO cells assessed as viable cells at 5 uM incubated for 24 hrs by Annexin V-FITC/PI staining based flow cytometry assay (reference value: 89.93%); format: functional; conditions: read-out: Activity
MINO [6] = test: Downregulation of EZH2 protein expression in human MINO cells at 5 uM incubated for 24 hrs by Western blotting assay; format: functional, cell-based
MINO [7] = test: Induction of mitochondrial apoptosis pathway in human MINO cells assessed as downregulation of procaspase-9 expression at 5 uM incubated for 24 hrs by Western blotting assay; format: functional, cell-based
[8] = Induction of cell cycle arrest in human MINO cells assessed as S phase cells at 5 uM incubated for 24 hrs by propidium iodide staining based flow cytometry assay (reference value: 25.19%); format: functional
[9] = Induction of cell cycle arrest in human MINO cells assessed as G2/M phase cells at 5 uM incubated for 24 hrs by propidium iodide staining based flow cytometry assay (reference value: 7.26%); format: functional
MINO [10] = test: Downregulation of SUZ12 protein expression in human MINO cells at 5 uM incubated for 24 hrs by Western blotting assay; format: functional, cell-based
[11] = Induction of apoptosis in human MINO cells assessed as necrotic cells at 5 uM incubated for 24 hrs by Annexin V-FITC/PI staining based flow cytometry assay (reference value: 0.74%); format: functional
MINO [12] = test: Downregulation of H3k27me3 protein expression in human MINO cells at 5 uM incubated for 24 hrs by Western blotting assay; format: functional, cell-based
MINO [13] = test: Induction of mitochondrial apoptosis pathway in human MINO cells assessed as upregulation of cleaved PARP expression at 5 uM incubated for 24 hrs by Western blotting assay; format: functional, cell-based
MINO [14] = test: Induction of mitochondrial apoptosis pathway in human MINO cells assessed as upregulation of cytochrome C expression at 5 uM incubated for 24 hrs by Western blotting assay; format: functional, cell-based
[15] = Induction of apoptosis in human MINO cells assessed as late apoptotic cells at 5 uM incubated for 24 hrs by Annexin V-FITC/PI staining based flow cytometry assay (reference value: 8.29%); format: functional
[16] = Induction of cell cycle arrest in human MINO cells assessed as G0/G1 phase cells at 5 uM incubated for 24 hrs by propidium iodide staining based flow cytometry assay (reference value: 67.56%); format: functional
MINO [17] = test: Downregulation of EED protein expression in human MINO cells at 5 uM incubated for 24 hrs by Western blotting assay; format: functional, cell-based
MINO [18] = test: Induction of mitochondrial apoptosis pathway in human MINO cells assessed as upregulation of bax protein expression at 5 uM incubated for 24 hrs by Western blotting assay; format: functional, cell-based
MINO [19] = test: Downregulation of RbAp48 protein expression in human MINO cells at 5 uM incubated for 24 hrs by Western blotting assay; format: functional, cell-based

Structure (SMILES) | IC50 (OCI-Ly7) [nM] | IC50 [1] [nM] | also measured
CCN(c1cc(-c2ccc(CN3CCN(C(=O)C4CCN(C5CN(c6cccc7c6C(=O)N(C6CCC(=O)NC6=O)C7=O)C5)CC4)CC3)cc2)cc(C(=O)NCc2c(C)cc(C)[nH]c2=O)c1C)C1CCOCC1 (configuration not stated) | 10400 | 2470 | –
CCN(c1cc(-c2ccc(CN3CCN(CCCN4CC(CNc5cccc6c5C(=O)N(C5CCC(=O)NC5=O)C6=O)C4)CC3)cc2)cc(C(=O)NCc2c(C)cc(C)[nH]c2=O)c1C)C1CCOCC1 (configuration not stated) | 22 | 69 | –
CCN(c1cc(-c2ccc(CN3CCN(C(=O)/C=C/C4CCC(CNc5cccc6c5C(=O)N(C5CCC(=O)NC5=O)C6=O)C4)CC3)cc2)cc(C(=O)NCc2c(C)cc(C)[nH]c2=O)c1C)C1CCOCC1 (configuration not stated) | 7 | 57 | –
CCN(c1cc(-c2ccc(CN3CCN(C(=O)C4CCC(CNc5cccc6c5C(=O)N(C5CCC(=O)NC5=O)C6=O)CC4)CC3)cc2)cc(C(=O)NCc2c(C)cc(C)[nH]c2=O)c1C)C1CCOCC1 (configuration not stated) | 18 | 34 | –
CCN(c1cc(-c2ccc(CN3CCN(C(=O)C=C4CCC(CNc5cccc6c5C(=O)N(C5CCC(=O)NC5=O)C6=O)CC4)CC3)cc2)cc(C(=O)NCc2c(C)cc(C)[nH]c2=O)c1C)C1CCOCC1 (configuration not stated) | 190 | 690 | –
CCN(c1cc(-c2ccc(CN3CCOCC3)cc2)cc(C(=O)NCc2c(C)cc(C)[nH]c2=O)c1C)C1CCOCC1 [TAZEMETOSTAT] | 1190 | 1070 | Activity (MINO [2]): Active; Activity Weaker Than Zj-20; Activity (MINO [3]): Active; Activity Weaker Than Zj-20; Activity [4]: 0.38%; viability at 5 µM [5]: 57.2%; Activity (MINO [6]): inactive; Activity (MINO [7]): Active; Activity Weaker Than Zj-20; Activity [8]: 18.34%; Activity [9]: 7.74%; Activity (MINO [10]): inactive; Activity [11]: 10.27%; Activity (MINO [12]): Active; Limited Inhibition Observed; Activity (MINO [13]): Active; Activity Weaker Than Zj-20; Activity (MINO [14]): Active; Activity Weaker Than Zj-20; Activity [15]: 32.16%; Activity [16]: 73.92%; Activity (MINO [17]): inactive; Activity (MINO [18]): Active; Activity Weaker Than Zj-20; Activity (MINO [19]): inactive
CCN(c1cc(-c2ccc(CN3CCN(CC=C4CCC(CNc5cccc6c5C(=O)N(C5CCC(=O)NC5=O)C6=O)CC4)CC3)cc2)cc(C(=O)NCc2c(C)cc(C)[nH]c2=O)c1C)C1CCOCC1 (configuration not stated) | 4 | 250 | –
CCN(c1cc(-c2ccc(CN3CCN(C(=O)CCC4CC(CNc5cccc6c5C(=O)N(C5CCC(=O)NC5=O)C6=O)C4)CC3)cc2)cc(C(=O)NCc2c(C)cc(C)[nH]c2=O)c1C)C1CCOCC1 (configuration not stated) | 10 | 48 | –
CCN(c1cc(-c2ccc(CN3CCN(C(=O)/C=C/C4CC(CNc5cccc6c5C(=O)N(C5CCC(=O)NC5=O)C6=O)C4)CC3)cc2)cc(C(=O)NCc2c(C)cc(C)[nH]c2=O)c1C)C1CCOCC1 (configuration not stated) | 6 | 190 | –
CCN(c1cc(-c2ccc(CN3CCN(C(=O)Cc4ccc(CNc5cccc6c5C(=O)N(C5CCC(=O)NC5=O)C6=O)cc4)CC3)cc2)cc(C(=O)NCc2c(C)cc(C)[nH]c2=O)c1C)C1CCOCC1 (configuration not stated) | 870 | 1030 | –
CCN(c1cc(-c2ccc(CN3CCN(C(=O)/C=C/C4CCC(CNc5cccc6c5C(=O)N(C5CCC(=O)NC5=O)C6=O)CC4)CC3)cc2)cc(C(=O)NCc2c(C)cc(C)[nH]c2=O)c1C)C1CCOCC1 (configuration not stated) | 40 | 24 | –
CCN(c1cc(-c2ccc(CN3CCN(C(=O)CCC4CCC(CNc5cccc6c5C(=O)N(C5CCC(=O)NC5=O)C6=O)C4)CC3)cc2)cc(C(=O)NCc2c(C)cc(C)[nH]c2=O)c1C)C1CCOCC1 (configuration not stated) | 20 | 30 | –
CCN(c1cc(-c2ccc(CN3CCN(C(=O)C4CCN(C5CCN(c6cccc7c6C(=O)N(C6CCC(=O)NC6=O)C7=O)CC5)CC4)CC3)cc2)cc(C(=O)NCc2c(C)cc(C)[nH]c2=O)c1C)C1CCOCC1 (configuration not stated) | 4050 | 980 | –
CCN(c1cc(-c2ccc(CN3CCN(C(=O)CCC4CCC(CNc5cccc6c5C(=O)N(C5CCC(=O)NC5=O)C6=O)CC4)CC3)cc2)cc(C(=O)NCc2c(C)cc(C)[nH]c2=O)c1C)C1CCOCC1 (configuration not stated) | 37 | 39 | –
CCN(c1cc(-c2ccc(CN3CCN(CCC4CCC(CNc5cccc6c5C(=O)N(C5CCC(=O)NC5=O)C6=O)CC4)CC3)cc2)cc(C(=O)NCc2c(C)cc(C)[nH]c2=O)c1C)C1CCOCC1 (configuration not stated) | 13 | 40 | –

The next lines start with results.

IC50 (OCI-Ly7) [nM] | Structure (SMILES) | IC50 [1] [nM] | also measured
2350 | CCN(c1cc(-c2ccc(CN3CCN(C(=O)CN4CCN(c5cccc6c5C(=O)N(C5CCC(=O)NC5=O)C6=O)CC4)CC3)cc2)cc(C(=O)NCc2c(C)cc(C)[nH]c2=O)c1C)C1CCOCC1 (configuration not stated) | 110 | –
22 | CCN(c1cc(-c2ccc(CN3CCN(C(=O)CN4CCC(Nc5cccc6c5C(=O)N(C5CCC(=O)NC5=O)C6=O)CC4)CC3)cc2)cc(C(=O)NCc2c(C)cc(C)[nH]c2=O)c1C)C1CCOCC1 (configuration not stated) | 530 | –
170 | CCN(c1cc(-c2ccc(CN3CCN(C(=O)CCN4CC(CNc5cccc6c5C(=O)N(C5CCC(=O)NC5=O)C6=O)C4)CC3)cc2)cc(C(=O)NCc2c(C)cc(C)[nH]c2=O)c1C)C1CCOCC1 (configuration not stated) | 510 | –
1970 | CCN(c1cc(-c2ccc(CN3CCN(C(=O)CN4CC(CNc5cccc6c5C(=O)N(C5CCC(=O)NC5=O)C6=O)C4)CC3)cc2)cc(C(=O)NCc2c(C)cc(C)[nH]c2=O)c1C)C1CCOCC1 (configuration not stated) | 950 | –
220 | CCN(c1cc(-c2ccc(CN3CCN(C(=O)CN4CCCC(CNc5cccc6c5C(=O)N(C5CCC(=O)NC5=O)C6=O)C4)CC3)cc2)cc(C(=O)NCc2c(C)cc(C)[nH]c2=O)c1C)C1CCOCC1 (configuration not stated) | 450 | –
2130 | CCN(c1cc(-c2ccc(CN3CCN(C(=O)CN4CCC(CNc5cccc6c5C(=O)N(C5CCC(=O)NC5=O)C6=O)C4)CC3)cc2)cc(C(=O)NCc2c(C)cc(C)[nH]c2=O)c1C)C1CCOCC1 (configuration not stated) | 3210 | –
150 | CCN(c1cc(-c2ccc(CN3CCN(C(=O)CN4CCC(Nc5cccc6c5C(=O)N(C5CCC(=O)NC5=O)C6=O)C4)CC3)cc2)cc(C(=O)NCc2c(C)cc(C)[nH]c2=O)c1C)C1CCOCC1 (configuration not stated) | 660 | –
